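Five concentrations, 48 hours, 96-well plates. GI50 is the concentration that inhibits growth by half.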 Activity calls are given as the source filed them. Rule as the data show it: active = GI50 up to about 1.1 µM and inactive = higher.
Experiments:
Assay in all cases: NCI tumour cell line growth inhibition, 48 h
A549 = test system: A549
ACHN = test system: ACHN
CAKI-1 = test system: CAKI-1
CCRF-CEM = test system: CCRF-CEM
COLO 205 = test system: COLO 205
DU-145 = test system: DU-145
EKVX = test system: EKVX
HCC 2998 = test system: HCC 2998
HCT-116 = test system: HCT-116
HCT-15 = test system: HCT-15
HL-60 = test system: HL-60
HOP-92 = test system: HOP-92
HT-29 = test system: HT-29
Hs-578T = test system: Hs-578T
IGROV-1 = test system: IGROV-1
K562 = test system: K562
KM12 = test system: KM12
M14 = test system: M14
MCF7 = test system: MCF7
MDA-MB-231 = test system: MDA-MB-231
MDA-MB-435 = test system: MDA-MB-435
MOLT-4 = test system: MOLT-4
NCI-H23 = test system: NCI-H23
NCI-H460 = test system: NCI-H460
NCI-H522 = test system: NCI-H522
NCI/ADR-RES = test system: NCI/ADR-RES
OVCAR-3 = test system: OVCAR-3
OVCAR-4 = test system: OVCAR-4
OVCAR-5 = test system: OVCAR-5
OVCAR-8 = test system: OVCAR-8
RPMI-8226 = test system: RPMI-8226
RXF 393 = test system: RXF 393
SF-268 = test system: SF-268
SF-295 = test system: SF-295
SF-539 = test system: SF-539
SK-MEL-28 = test system: SK-MEL-28
SK-MEL-2 = test system: SK-MEL-2
SK-MEL-5 = test system: SK-MEL-5
SK-OV-3 = test system: SK-OV-3
SN12C = test system: SN12C
SNB-19 = test system: SNB-19
SNB-75 = test system: SNB-75
SR = test system: SR
SW-620 = test system: SW-620
T47D = test system: T47D
TK-10 = test system: TK-10
U-251 = test system: U-251
UACC-257 = test system: UACC-257
UACC-62 = test system: UACC-62
UO-31 = test system: UO-31

## NC(CCOCCP(=O)(O)CCOCCC(N)C(=O)O)C(=O)O (stereo not given)
A549
  GI50: > 100 µM (inactive)
ACHN
  GI50: > 100 µM (inactive)
CAKI-1
  GI50: > 100 µM (inactive)
CCRF-CEM
  GI50: > 100 µM (inactive)
COLO 205
  GI50: > 100 µM (inactive)
DU-145
  GI50: > 100 µM (inactive)
EKVX
  GI50: > 100 µM (inactive)
HCC 2998
  GI50: > 100 µM (inactive)
HCT-116
  GI50: > 100 µM (inactive)
HCT-15
  GI50: > 100 µM
HL-60
  GI50: > 100 µM (inactive)
HOP-92
  GI50: > 100 µM (inactive)
HT-29
  GI50: > 100 µM (inactive)
Hs-578T
  GI50: > 100 µM (inactive)
IGROV-1
  GI50: > 100 µM (inactive)
K562
  GI50: > 100 µM (inactive)
KM12
  GI50: > 100 µM (inactive)
M14
  GI50: > 100 µM (inactive)
MCF7
  GI50: > 100 µM (inactive)
MDA-MB-231
  GI50: > 100 µM (inactive)
MDA-MB-435
  GI50: > 100 µM (inactive)
MOLT-4
  GI50: > 100 µM (inactive)
NCI-H23
  GI50: > 100 µM (inactive)
NCI-H460
  GI50: > 100 µM (inactive)
NCI-H522
  GI50: > 100 µM (inactive)
NCI/ADR-RES
  GI50: > 100 µM (inactive)
OVCAR-3
  GI50: > 100 µM (inactive)
OVCAR-4
  GI50: > 100 µM (inactive)
OVCAR-5
  GI50: > 100 µM (inactive)
OVCAR-8
  GI50: > 100 µM (inactive)
RPMI-8226
  GI50: > 100 µM (inactive)
RXF 393
  GI50: > 100 µM (inactive)
SF-268
  GI50: > 100 µM (inactive)
SF-295
  GI50: > 100 µM (inactive)
SF-539
  GI50: > 100 µM (inactive)
SK-MEL-28
  GI50: > 100 µM (inactive)
SK-MEL-2
  GI50: > 100 µM (inactive)
SK-MEL-5
  GI50: > 100 µM (inactive)
SK-OV-3
  GI50: > 100 µM (inactive)
SN12C
  GI50: > 100 µM (inactive)
SNB-19
  GI50: > 100 µM (inactive)
SNB-75
  GI50: > 100 µM (inactive)
SR
  GI50: > 100 µM (inactive)
SW-620
  GI50: > 100 µM (inactive)
T47D
  GI50: > 100 µM (inactive)
TK-10
  GI50: > 100 µM (inactive)
U-251
  GI50: > 100 µM (inactive)
UACC-257
  GI50: > 100 µM (inactive)
UACC-62
  GI50: > 100 µM (inactive)
UO-31
  GI50: > 100 µM (inactive)

Source: ChEMBL document CHEMBL1201862, “PubChem BioAssay data set” (2004)
